14 compounds from US12404295B2, “(Hetero)aryl-methyl-thio-beta-D-galactopyranoside derivatives” (Idorsia Pharmaceuticals Ltd, priority 2019, dated 2025) can be followed below.

The target of one assay is human Gal-1 (hGal-1) (Homo sapiens (Human), UniProt P09382). Put plainly: competitive binding assay: biotinylated hGal-1 binding to microplate-adsorbed asialofetuin (ASF). The conditions noted are these: Table 15; read-out: IC50 (Galectin-1 inhibition). A digest of the protocol:
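Spectrophotometric competition readout: after compound and biotinylated hGal-1 (300-1000 ng/mL) sit 3 h at 4° C on adsorbed asialofetuin, streptavidin-peroxidase (1 h, 4° C) and ABTS reveal residual binding. Reported IC50 values are means of repeat runs.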

A further assay addresses human Gal-3 (hGal-3) (Homo sapiens (Human), UniProt P17931). Put plainly: competitive binding assay: biotinylated hGal-3 binding to microplate-adsorbed asialofetuin (ASF). Summed up:
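3 h, 4 °C binding step; cold buffer wash; streptavidin-HRP 80 ng/mL, 1 h, 4 °C; ABTS colorimetric read-out. Compounds diluted serially in DMSO. IC50 reported as mean of repeat runs.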

Where [1] appears, read: Gal-3 inhibition, binding of biotinylated hGal-3 to ASF, mean values, read-out: IC50.
[2] abbreviates: Table 5, read-out: IC50 (Gal-3 inhibition).

Read-outs that look alike come from different tables or passages of the source.

human Gal-3 (hGal-3), sequence (P17931 whole entry): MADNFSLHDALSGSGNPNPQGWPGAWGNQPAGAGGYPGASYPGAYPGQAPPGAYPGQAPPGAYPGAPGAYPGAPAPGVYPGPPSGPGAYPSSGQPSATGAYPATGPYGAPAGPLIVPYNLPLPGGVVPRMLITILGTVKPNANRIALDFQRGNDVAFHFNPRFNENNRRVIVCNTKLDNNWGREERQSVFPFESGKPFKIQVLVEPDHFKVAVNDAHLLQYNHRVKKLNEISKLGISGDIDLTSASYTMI
human Gal-1 (hGal-1), sequence (P09382 whole entry): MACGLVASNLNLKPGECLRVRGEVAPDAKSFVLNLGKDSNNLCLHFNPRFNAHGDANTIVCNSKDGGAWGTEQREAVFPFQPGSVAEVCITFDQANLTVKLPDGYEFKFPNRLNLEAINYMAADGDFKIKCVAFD

The term IC50 denotes the concentration at which inhibition is half-maximal. As to `Cc1noc(C)c1C(S[C@@H]1O[C@H](CO)[C@H](O)[C@H](n2cc(-c3cc(F)c(F)c(F)c3)nn2)[C@H]1O)C(C)(C)O` (stereo partly drawn) [Example 2.31.121., (2S,3R,4S,5R,6R)-2-((1-(3,5-Dimethylisoxazol-4-yl)-2-hydroxy-2-methylpropyl)thio)-6-(hydroxymethyl)-4-(4-(3,4,5-trifluorophenyl)-1H-1,2,3-triazol-1-yl)tetrahydro-2H-pyran-3,5-diol], the IC50 stood at 5.03 µM on human Gal-1 (hGal-1) and 0.71 µM on human Gal-3 (hGal-3) (setting [1]).

Consider `CN1CCC(O)(C(S[C@@H]2O[C@H](CO)[C@H](O)[C@H](n3cc(-c4cc(F)c(F)c(F)c4)nn3)[C@H]2O)c2ccccc2C(F)(F)F)CC1` (stereo partly drawn) [Example 2.40.112., (2S,3R,4S,5R,6R)-2-(((4-Hydroxy-1-methylpiperidin-4-yl)(2-(trifluoromethyl)phenyl)methyl)thio)-6-(hydroxymethyl)-4-(4-(3,4,5-trifluorophenyl)-1H-1,2,3-triazol-1-yl)tetrahydro-2H-pyran-3,5-diol], for which the IC50 was 0.42 µM at human Gal-1 (hGal-1) and 0.13 µM on human Gal-3 (hGal-3) (setting [2]).

With `CC(C)(O)C(S[C@@H]1O[C@H](CO)[C@H](O)[C@H](n2cc(-c3cc(F)c(F)c(F)c3)nn2)[C@H]1O)c1ccccc1C1CC1` (stereo partly drawn) [Example 2.31.106., (2S,3R,4S,5R,6R)-2-((1-(2-Cyclopropylphenyl)-2-hydroxy-2-methylpropyl)thio)-6-(hydroxymethyl)-4-(4-(3,4,5-trifluorophenyl)-1H-1,2,3-triazol-1-yl)tetrahydro-2H-pyran-3,5-diol], the IC50 at human Gal-1 (hGal-1) amounted to 0.34 µM; on human Gal-3 (hGal-3) (setting [1]), 0.2 µM.

As to `COCC(S[C@@H]1O[C@H](CO)[C@H](O)[C@H](n2cc(-c3cc(F)c(F)c(F)c3)nn2)[C@H]1O)c1ccccc1` (stereo partly drawn) [Example 2.30.100.OMe, (2R,3R,4S,5R,6S)-2-(Hydroxymethyl)-6-((2-methoxy-1-phenylethyl)thio)-4-(4-(3,4,5-trifluorophenyl)-1H-1,2,3-triazol-1-yl)tetrahydro-2H-pyran-3,5-diol, reference compound], the IC50 at human Gal-1 (hGal-1) was determined as 56.3 µM; at human Gal-3 (hGal-3) (setting [1]), 2.9 µM.

`CCc1c([C@@H](S[C@@H]2O[C@H](CO)[C@H](O)[C@H](n3cc(-c4cc(F)c(F)c(F)c4)nn3)[C@H]2O)C2(O)CCC(F)(F)CC2)noc1C1CC1` [Example 2.44.130R., (2S,3R,4S,5R,6R)-2-(((R)-(5-Cyclopropyl-4-ethylisoxazol-3-yl)(4,4-difluoro-1-hydroxycyclohexyl)methyl)thio)-6-(hydroxymethyl)-4-(4-(3,4,5-trifluorophenyl)-1H-1,2,3-triazol-1-yl)tetrahydro-2H-pyran-3,5-diol]: the IC50 at human Gal-1 (hGal-1) came out at 0.16 µM; at human Gal-3 (hGal-3) (setting [1]), 0.02 µM.

For the compound `CO[C@@H]1[C@@H](n2cc(-c3ccc(Cl)c(F)c3F)nn2)[C@@H](O)[C@@H](CO)O[C@H]1SC(c1ncccc1C)C1(O)CCC(F)(F)CC1` (stereo partly drawn) [Example 22.44.126.I., (2R,3R,4S,5R,6S)-4-(4-(4-Chloro-2,3-difluorophenyl)-1H-1,2,3-triazol-1-yl)-6-(((4,4-difluoro-1-hydroxycyclohexyl)(3-methylpyridin-2-yl)methyl)thio)-2-(hydroxymethyl)-5-methoxytetrahydro-2H-pyran-3-ol], the concentration for half-maximal inhibition (IC50) worked out at 0.92 µM on human Gal-1 (hGal-1) and 0.07 µM at human Gal-3 (hGal-3) (Table 14, read-out: IC50 (Gal-3 inhibition)).

Regarding `Cc1cccnc1[C@H](S[C@@H]1O[C@H](CO)[C@H](O)[C@H](n2cc(-c3cc(F)c(F)c(F)c3)nn2)[C@H]1O)C1(O)CCC(F)(F)CC1` [Example 2.44.126S., (2S,3R,4S,5R,6R)-2-(((S)-(4,4-Difluoro-1-hydroxycyclohexyl)(3-methylpyridin-2-yl)methyl)thio)-6-(hydroxymethyl)-4-(4-(3,4,5-trifluorophenyl)-1H-1,2,3-triazol-1-yl)tetrahydro-2H-pyran-3,5-diol], the IC50 was found to be 26.5 µM on human Gal-1 (hGal-1) and 3.35 µM at human Gal-3 (hGal-3) (setting [1]).

Regarding `Cc1ccnnc1[C@H](S[C@@H]1O[C@H](CO)[C@H](O)[C@H](n2cc(-c3cc(F)c(F)c(F)c3)nn2)[C@H]1O)C1(O)CCC(F)(F)CC1` [Example 2.44.135S., (2S,3R,4S,5R,6R)-2-(((S)-(4,4-Difluoro-1-hydroxycyclohexyl)(4-methylpyridazin-3-yl)methyl)thio)-6-(hydroxymethyl)-4-(4-(3,4,5-trifluorophenyl)-1H-1,2,3-triazol-1-yl)tetrahydro-2H-pyran-3,5-diol], the IC50 on human Gal-1 (hGal-1) stood at 5.43 µM; on human Gal-3 (hGal-3) (setting [1]), 2.79 µM.

As to “(2S,3R,4S,5R,6R)-2-(((S)-(1-Hydroxycyclohexyl)(4-methylisoxazol-3-yl)methyl)thio)-6-(hydroxymethyl)-4-(4-(3,4,5-trifluorophenyl)-1H-1,2,3-triazol-1-yl)tetrahydro-2H-pyran-3,5-diol [Example 2.39.120S.]”, the IC50 stood at 70 µM at human Gal-1 (hGal-1) and 14.8 µM at human Gal-3 (hGal-3) (setting [2]).

`CO[C@@H]1[C@@H](n2cc(-c3cc(F)c(F)c(F)c3)nn2)[C@@H](O)[C@@H](CO)O[C@H]1S[C@H](c1ncccc1C(C)C)C1(O)CCC(F)(F)CC1` [Example 2.44.132R.I., (2R,3R,4S,5R,6S)-6-(((R)-(4,4-Difluoro-1-hydroxycyclohexyl)(3-isopropylpyridin-2-yl)methyl)thio)-2-(hydroxymethyl)-5-methoxy-4-(4-(3,4,5-trifluorophenyl)-1H-1,2,3-triazol-1-yl)tetrahydro-2H-pyran-3-ol]: the IC50 was 0.1 µM at human Gal-1 (hGal-1) and 0.12 µM on human Gal-3 (hGal-3) (Table 9, 2-OMe-Gal inhibitors, read-out: IC50 (Gal-3 inhibition)).

On to `Cc1conc1[C@H](S[C@@H]1O[C@H](CO)[C@H](O)[C@H](n2cc(-c3cc(F)c(F)c(F)c3)nn2)[C@H]1O)C(C)(C)O` [Example 2.31.120S., (2S,3R,4S,5R,6R)-2-(((S)-2-Hydroxy-2-methyl-1-(4-methylisoxazol-3-yl)propyl)thio)-6-(hydroxymethyl)-4-(4-(3,4,5-trifluorophenyl)-1H-1,2,3-triazol-1-yl)tetrahydro-2H-pyran-3,5-diol], for which the IC50 turned out to be 61.3 µM at human Gal-1 (hGal-1) and 12.4 µM at human Gal-3 (hGal-3) (setting [1]).

With `Cc1cccnc1C(S[C@@H]1O[C@H](CO)[C@H](O)[C@H](n2cc(-c3cc(F)c(F)c(F)c3)nn2)[C@H]1O)C1(O)CCOCC1` (stereo partly drawn) [Example 2.41.126., (2R,3R,4S,5R,6S)-2-(Hydroxymethyl)-6-(((4-hydroxytetrahydro-2H-pyran-4-yl)(3-methylpyridin-2-yl)methyl)thio)-4-(4-(3,4,5-trifluorophenyl)-1H-1,2,3-triazol-1-yl)tetrahydro-2H-pyran-3,5-diol], the results for the IC50 at human Gal-1 (hGal-1) and on human Gal-3 (hGal-3) (setting [1]) were 0.8 µM and 0.08 µM, respectively.

Consider `CC(C)(O)C(S[C@@H]1O[C@H](CO)[C@H](O)[C@H](n2cc(-c3ccc(C#N)c(F)c3)nn2)[C@H]1O)c1ccccc1C(F)(F)F` (stereo partly drawn) [Example 5.31.112., 4-(1-((2S,3R,4S,5R,6R)-3,5-Dihydroxy-2-((2-hydroxy-2-methyl-1-(2-(trifluoromethyl)phenyl)propyl)thio)-6-(hydroxymethyl)tetrahydro-2H-pyran-4-yl)-1H-1,2,3-triazol-4-yl)-2-fluorobenzonitrile], for which the half-maximal inhibitory concentration (IC50) at human Gal-1 (hGal-1) came to 3.58 µM; at human Gal-3 (hGal-3) (setting [1]), 1.5 µM.

As to `Cc1ccccc1[C@H](S[C@@H]1O[C@H](CO)[C@H](O)[C@H](n2cc(-c3cc(F)c(F)c(F)c3)nn2)[C@H]1O)C1(O)CCOCC1` [Example 2.41.102S.], the IC50 at human Gal-1 (hGal-1) was 65.4 µM; on human Gal-3 (hGal-3) (setting [2]), 7.36 µM.
